The values that follow come from patent US20040115160A1, “Quaternary ammonium esters for disinfection and preservation” (priority 2002, published 2004).

The assay deals with Acanthamoeba polyphaga strain Ros cysts. The experiment in a line: Acanthamoeba contact lens disinfectant challenge test assay. It counts as cell-based. Conditions: 25 ppm. The protocol: Acanthamoeba polyphaga strain Ros were used in this study. Trophozoites were maintained at 30° C. in an axenic broth medium composed of 20.0 g Biosate™ (Becton Dickinson, United Kingdom), 5.0 g glucose, 0.3 g KH2PO4, 10 μg vitamin B12 and 15.0 mg L-methionine per litre of deionized water. The pH was adjusted to 6.5-6.6 with 1 M NaOH before autoclaving at 121° C. for 12 minutes. Penicillin and streptomycin were added to a final concentration of 150 μ/ml before use.
Cysts were prepared from trophozoite cultures using the axenic medium supplemented with 50 mM MgCl2. The encystment medium was inoculated with approximately 2×10^5 /ml trophoxoites for culture at 30° C. in a shaking incubator (100 rpm) for 7 days. Cells were enumerated using haemocytometer counting.
The challenge test assay protocol, as described by R. Hughes and S. Kilvington, Comparison of Hydrogen Peroxide Contact Lens Disinfection Systems and Solutions Against Acanthamoeba Polyphaga, Antimicrob. Agents Chemother. 45: 2038-2043, (2001), is set forth in detail below. The number of surviving organisms was calculated as described by L. J. Reed and H. Muench, A Simple Method for Estimating Fifty Percent Endpoints, Am. J. Hyg., 27: 493-497, (1938). Statistical analysis of the data was by One Way Analysis Of Variance (ANOVA).
1. Fifty ml polypropylene centrifuge tubes were aged overnight with 15 ml of disinfectant solution, i.e., ReNue™ 02 (Bausch & Lomb, Rochester, N.Y.). The tubes were then drained, the disinfectant solution discarded, and refilled with 10 ml of fresh disinfectant solution for testing.
2. To a flat-bottomed, 96 well microtitre plate having 8 columns labelled “A” through “H”, 180 μl of neutralizer, i.e., 0.1 percent Tween™ 80 (Baker, Inc., Phillipsburg, N.J.) in one-quarter strength Ringer's solution for biguanide based disinfectants, was added to the outer wells of columns A and H. 180 μl of one-quarter strength Ringer's solution was then added to the remaining inner wells of columns B through G.
3. Amoebae were adjusted to 5×10^6 /ml in one-quarter strength Ringer's solution and 100 μl (5×10^5) was added to 10 ml of disinfectant (5×10^4 /ml) or saline control.
4. At time intervals of 0, 1, 2, 3, 4, 6 and 24 hours:
i. vortexed tubes 5 seconds;
ii. in quadruplet, removed 20 μl (1000 cells) and added to neutralizer wells for the given time-point (i.e., column A, rows 9-12) and made serial 10-fold dilutions across the microtitre plate (i.e., to column D, rows 9-12); and
iii. repeated for each time point.
5. One drop of live E. coli from 3 ml pastette (25 μl of approximately 5×10^7 bacteria/ml) was then added to each well.
6. The plate was then incubated at 32° C. for up to 7 days.
7. The plate was inspected daily for 7 days for the presence of amoebal growth, either trophozoite replication or excystment and trophozoite replication, in the wells.
8. The number of surviving organisms was then estimated at each time interval by Reed and Muench computation and set forth below in Table 3.

Each structure is given as a SMILES string.

For the compound `CCCCCCCCCCCCCC(=O)OCCC[N+](C)(C)CC` [Compound 8, N-myristoyloxypropyl-N,N-dimethyl-N-ethylammonium iodide], the “Amoebae Log Kill, Cysts” value was 1 Log (1 Hr.) and 4 Log (4 Hr.).

Regarding `CCCCCCCCCCCCCC(=O)OCCC[N+](C)(C)CCCCC` [Compound 11, N-myristoyloxypropyl-N,N-dimethyl-N-pentylammonium iodide], the “Amoebae Log Kill, Cysts” value is 3.69 Log (1 Hr.) and 3.69 Log (4 Hr.).

For `CCCCCCCCCCCCCCCC(=O)OCCC[N+](C)(C)C` [Compound 6, N-palmitoyloxypropyl-N,N,N-trimethylammonium iodide], the “Amoebae Log Kill, Cysts” value is, setting by setting: (1 Hr.) 0.46 Log; (4 Hr.) 3.54 Log.

`CCCCCCCCCCCCCC(=O)OCCC[N+](C)(C)CCCCCC` [Compound 12, N-myristoyloxypropyl-N,N-dimethyl-N-hexylammonium iodide]: the “Amoebae Log Kill, Cysts” value runs as follows: (1 Hr.) 3.54 Log; (4 Hr.) 3.54 Log.

Consider `CCCCCCCCCCCCCC(=O)OCCC[N+](C)(C)CCC` [Compound 9, N-myristoyloxypropyl-N,N-dimethyl-N-propylammonium iodide], for which the “Amoebae Log Kill, Cysts” value is listed as 3.69 Log (1 Hr.) and 4 Log (4 Hr.).
